The values that follow come from US20160361418A1, “COMPOSITION FOR PREVENTION OR TREATMENT OF TREATMENT-RESISTANT CANCER” (priority 2014, published 2016).

Entries after “also recorded” stand apart in the source; their conditions may differ.

One series has as its system 157NS cells. Briefly: Photosensitivity of cancer stem cells to ALA-PDT (WST-8 cell viability). The format is cell-based, human. To be noted: sphere type relative to non-sphere type. On the procedure:
(§1) Specifically, three types of brain tumor glioma stem cell lines (MD13, MD30, and 157NS cells), which had been isolated and established from brain tumor patients, were used, and an experiment was carried out to verify the photosensitivity of these cells to ALA-PDT. In preparation for the experiment, these cells were first cultured in a D-MEM/F12 culture solution containing 10% fetal calf serum (FCS) and in a D-MEM/F12 culture solution containing no FCS (containing L-glutamine, heparin, B27, EGF, and bFGF), and the shapes of the cells were then examined.
(§2) Brain tumor stem cells (MD13, MD30, and 157NS cells), which had grown to a sphere type and a non-sphere type, were treated with trypsin, and thereafter, the resulting cells were each incubated at a density of 1.0×10^6 cells/ml, together with 0.3 mM ALA, for 4 hours. Thereafter, a 405-nm laser light was applied to the cells. After the cells had been cultured for 7 days, the cell viability was measured according to a viable cell count measurement method (WST-8 assay) using water soluble tetrazolium salts as a coloring reagent.
(§3) The sphere type cells (FIG. 2B) cultured in the D-MEM/F12 culture solution containing no FCS (containing L-glutamine, heparin, B27, EGF, and bFGF) had higher sensitivity to ALA-PDT, than the non-sphere type cells (FIG. 2A) cultured in the D-MEM/F12 culture solution containing 10% FCS.

The test system of another series is MD13 cells. Described as above. The settings on record: sphere type relative to non-sphere type. The format is cell-based, human. How it is done: as §1, §2, §3
A further series has as its system MD30 cells. The series is described as above. The settings on record: sphere type relative to non-sphere type. The format is cell-based, human. On the procedure:
as §1, §2, §3

Series [1] deals with Brain tumor stem cells (MD13, MD30, and 157NS cells). Briefly: Photosensitivity of cancer stem cells to ALA-PDT, summary over the three lines. The format is cell-based, human. The settings on record: 0.3 mM ALA 4 hours; 405-nm laser light. On the procedure:
as §1, §2, §3

The test system of series [2] is brain tumor cell line A172. Briefly: Photosensitivity of brain tumor cells to ALA-PDT (WST-8 cell viability). The format is cell-based. To be noted: 0.3 mM ALA 4 hours, 405-nm laser light, WST-8 after 7 days. How it is done:
(§4) The brain tumor cell line A172 (purchased from American Type Culture Collection) was cultured in a D-MEM/F12 culture solution containing no FCS (containing L-glutamine, heparin, B27, EGF, and bFGF). As a result, the cells formed a sphere similar to stem cells. […] The cells, which had grown to a sphere type and a non-sphere type, were treated with trypsin. Subsequently, the cells were each incubated at a density of 1.0×10^6 cells/ml, together with 0.3 mM ALA, for 4 hours, and thereafter, a 405-nm laser light was applied to the cells. After the cells had been further cultured for 7 days, the cell viability was measured by a WST-8 assay in the same manner as that of Example 2.

For series [3], the system named is brain tumor cell line A172. Kind of series: Photosensitivity of brain tumor cells to ALA-PDT (colony formation assay). The format is cell-based. To be noted: 0.3 mM ALA 4 hours, 405-nm laser light, colonies after 14 days. On the procedure:
as §4
Moreover, 500 cells were collected from A172 cells, on which ALA-PDT had been performed, and the cells were then seeded on a D-MEM agar medium containing 10% FCS and an antibiotic, followed by performing a culture for 14 days. Thereafter, the cultured cells were treated with Trypan blue containing 10% formalin, so that the cell colonies were immobilized and stained. The number of colonies each consisting of 50 or more cells was counted using a stereoscopic microscope.
In the aforementioned WST-8 assay, the cell viability can be measured based on a reduction reaction using mitochondrial NAD(P)H. On the other hand, in the colony formation assay, the proliferation ability of cells can be measured. […]

In series [4] the test system is Human glioblastoma astrocytoma U87MG cells. Kind of series: ALA-PDT with Lapatinib, cell viability by MTT method. The format is cell-based. To be noted: LED 635 nm 12 J/cm^2. On the procedure:
Human glioblastoma astrocytoma U87MG cells (10^6 cells) were suspended in DMEM (2% FBS), and thereafter, 10 mM ALA alone was added to the suspension, or 10 mM ALA was combined with Lapatinib in a concentration from 1 nM to 300 μM, and the combination was then added to the suspension. The obtained mixture was cultured at 37° C. for 4 hours. Thereafter, the cells were irradiated with LED having a peak at 635 nm (12 J/cm^2), and the cell viability was then measured by an MTT method. It is to be noted that the MTT method has the same measurement principle as that of the WST-8 assay, and that this is a colorimetric determination method for measuring an enzymatic activity of reducing MTT to a formazan pigment (violet).
(In general: Tetrazolium assays rely on reduction of a dye to a coloured formazan, in cell work by metabolically active cells.)

A further series relates to HeLa cells. Kind of series: Multiple-dose ALA-PDT on HeLa cells and therapy-resistant HeLa cells (WST8 cell viability). The format is cell-based, human.
The conditions of series [5]: metabolized in a living body; cited from earlier work.
The target in series [6] is T1, ABCG2 (Homo sapiens, UniProt Q9UNQ0).
T1 sequence (Q9UNQ0 1-655): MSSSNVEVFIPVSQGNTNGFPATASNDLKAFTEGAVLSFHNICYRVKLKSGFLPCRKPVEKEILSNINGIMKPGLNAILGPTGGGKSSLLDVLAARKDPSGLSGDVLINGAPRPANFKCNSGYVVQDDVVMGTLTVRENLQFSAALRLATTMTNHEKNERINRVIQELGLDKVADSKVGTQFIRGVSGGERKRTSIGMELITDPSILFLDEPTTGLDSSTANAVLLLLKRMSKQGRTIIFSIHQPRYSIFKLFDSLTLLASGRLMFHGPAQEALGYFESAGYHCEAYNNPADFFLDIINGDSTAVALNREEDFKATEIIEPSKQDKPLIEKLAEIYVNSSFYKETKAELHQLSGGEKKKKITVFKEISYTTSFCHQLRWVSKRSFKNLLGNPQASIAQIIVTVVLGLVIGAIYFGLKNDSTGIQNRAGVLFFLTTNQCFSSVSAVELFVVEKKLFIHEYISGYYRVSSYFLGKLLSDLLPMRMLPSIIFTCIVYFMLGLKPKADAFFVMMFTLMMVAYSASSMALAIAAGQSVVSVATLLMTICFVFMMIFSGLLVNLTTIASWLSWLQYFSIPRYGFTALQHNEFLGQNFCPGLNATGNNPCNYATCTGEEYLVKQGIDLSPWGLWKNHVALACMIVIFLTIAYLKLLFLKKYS
Briefly: Inhibition of transport function of ABCG2 (Hoechst 33342 excretion, Flp-In-293/ABCG2 cells, FACS). To be noted: inhibitor 1 nM to 100 μM, 5 μg/mL Hoechst 33342, 90 minutes. Further details: expressed in transfected cells; host or cells: Flp-In-293 cells (Flp-In-293/ABCG2), with Flp-In-293/Mock as control. The format is cell-based. On the procedure:
In the present experiment, using Hoechst 33342 and a plurality of tyrosine kinase inhibitors, an experiment was carried out to screen for an inhibitor of ABCG2.
Specifically, using Erlotinib, Gefitinib, Lapatinib, Imatinib, Nilotinib and Dasatinib as tyrosine kinase inhibitors, and also using an L-type calcium channel inhibitor, Verapamil, as a control, screening was carried out for inhibition of the transport function of ABCG2.
Flp-In-293 cells (Flp-In-293/ABCG2 cells), which express human ABCG2, were cultured together with Hoechst 33342 as a substrate of ABCG2 and the aforementioned tyrosine kinase inhibitors for a certain period of time. Thereafter, the level of Hoechst 33342 accumulated in individual cells was measured using FACS (Beckman Coulter). […] Specific experimental procedures are as follows.
Flp-In-293/Mock and Flp-In-293/ABCG2 were each washed with PBS (phosphate buffered saline) twice, and were then peeled using Trypsin-EDTA. 10^6 cells were suspended in a DMEM medium (2% FBS). Subsequently, 5 μg/mL Hoechst 33342 (Invitrogen) alone was added to the suspension, or 5 μg/mL Hoechst 33342 was combined with various types of inhibitors in concentrations of 1 nM to 100 μM, and the combination was then added to the suspension. The obtained mixture was cultured at 37° C. for 90 minutes. After completion of the culture, the cultured cells were washed with cold PBS (2% FBS), and were then suspended again in cold PBS (2% FBS). Thereafter, intracellular fluorescence intensity was measured using FACS (Beckman Coulter). 50,000 cells were measured for a single measurement. Hoechst 33342 accumulated in the cells was excited with UV laser, the fluorescence at […] was then detected, and the mean fluorescence intensity (MFI) of the fluorescence of the measured cells was then calculated. Based on the obtained results, the inhibitory percentage against ABCG2 was calculated.
The MFI values of Flp-In-293/Mock cells and Flp-In-293/ABCG2 cells upon addition of Hoechst 33342 alone were set at 100% and 0%, respectively. […]

Series [7] concerns Human glioblastoma astrocytoma U87MG cells. Kind of series: Intracellular accumulation of PpIX biosynthesized from ALA (FACS fluorescence). The settings on record: 4 hours; for fluorescence intensity / intracellular accumulation of PpIX: 2 mM ALA with inhibitor 1 nM to 100 μM. The format is cell-based. How it is done:
Human glioblastoma astrocytoma U87MG cells were cultured together with 2 mM ALA and Lapatinib in various concentrations for 4 hours, and thereafter, the fluorescence intensity (MFI value) of PpIX, which was biosynthesized from ALA and was accumulated in the cells during the culture, was measured using FACS (Beckman Coulter). Specific experimental procedures are as follows.
U87MG cells were washed with PBS twice, and were then peeled using Trypsin-EDTA. 10^6 cells were suspended in a low-serum DMEM medium (2% FBS). Subsequently, 2 mM ALA alone was added to the suspension, or 2 mM ALA was combined with Lapatinib or Gefitinib in a concentration from 1 nM to 100 μM, and the combination was then added to the suspension. Thereafter, the obtained mixture was cultured at 37° C. for 4 hours. After completion of the culture, the cultured cells were washed with cold PBS (2% FBS), and were then suspended again in cold PBS (2% FBS). Thereafter, intracellular fluorescence intensity was measured using FACS (Beckman Coulter). 50,000 cells were measured for a single measurement. PpIX accumulated in the cells was excited with UV laser (325 nm), the fluorescence at 575 nm was then detected, and the mean fluorescence intensity (MFI) of the fluorescence of the measured cells was then calculated. Based on the obtained results, intracellular accumulation of PpIX was relatively calculated, and inhibition of the PpIX transport of ABCG2 by Lapatinib or Gefitinib was estimated.

Series [8] has as its target T1, ABCG2. To be noted: from earlier publication (Pharm Res. 26(2), 449-458, 2009); cited from earlier work.

Description for HeLa cells: HeLa cells (human-derived uterine cervix cancer cell line; 1×10^5 cells) were seeded on a 60-mm dish, and then cultured for 24 hours. Thereafter, an anticancer agent was administered to the culture solution. […] The surviving cells (5×10^3 cells) were seeded on a 96-well plate. In the present example, these cells surviving 72 hours after administration of the anticancer agent were used as therapy-resistant cancer.
Twenty-four hours after the seeding of the surviving cells on the 96-well plate, 5-aminolevulinic acid hydrochloride (ALA) was administered to the cells, and the resulting cells were then cultured for 4 hours. Thereafter, 631-nm LED light was applied to the cells to a total dose of 60 J/cm^2, one to three times. In the case of multiple-dose light irradiation, the interval between light irradiations was set at 2 hours. Twenty-four hours after the light irradiation, the resulting cells were washed with PBS twice, and the cell viability was then measured by the WST8 assay.
The longitudinal axis in each figure indicates the percentage of cell viability in the experiment groups, while the cell viability is set at 100% when the experiment was carried out under the same conditions as those described above with the exception that ALA was not administered.

As to `NCC(=O)CCC(=O)O` [ALA, 5-aminolevulinic acid], the ALA-PDT sensitivity in the series on 157NS cells came out at 1.8; with MD13 cells it was 2.4; in the series with MD30 cells it was 1.9. In addition, the “sensitivity to ALA-PDT of sphere type cells relative to non-sphere type cells” value in [1] came out at 2 times. The “photosensitivity to ALA-PDT of sphere type versus non-sphere type cells (cell viability)” value in series [2] is listed as “higher photosensitivity than the non-sphere type cells”. For the same compound, the “photosensitivity to ALA-PDT of sphere type versus non-sphere type cells (colony-forming ability)” value in series [3] was “significantly higher photosensitivity than the non-sphere type cells”. In series [4] (10 mM ALA alone 4 hours), the cells died result is reported as “approximately 50%”. In addition, the “cell viability in relation to the number of light irradiations” value with HeLa cells (125 to 250 μM ALA, 631-nm LED total 60 J/cm^2 in one to three irradiations) is on record as “decreased depending on the number of light irradiations”. In addition, the “ALA concentration at which the cell viability was decreased” value in the series on HeLa cells (HeLa with no anticancer agent or surviving Adriamycin, Cisplatin, Etoposide or 5-Fluorouracil, 631-nm LED total 60 J/cm^2, 24 hours after) is not below 125 µM. Further, in series [5], the “time until ALA is excreted from the body” value is not above 48 h.
For `C#Cc1cccc(Nc2ncnc3cc(OCCOC)c(OCCOC)cc23)c1` [Erlotinib, N-(3-ethynylphenyl)-6,7-bis(2-methoxyethoxy)-4-quinazolinamine], the “inhibition of ABCG2 (inhibition of the excretion of Hoechst 33342), comparison among inhibitors” value (“inhibition … comparison among inhibitors” below) at ABCG2 [6] is recorded as “ABCG2-inhibitory ability almost equivalent to each other”.
Consider `COc1cc2ncnc(Nc3ccc(F)c(Cl)c3)c2cc1OCCCN1CCOCC1` [Gefitinib, N-(3-chloro-4-fluoro-phenyl)-7-methoxy-6-(3-morpholin-4-ylpropoxy)quinazolin-4-amine], for which the “fluorescence intensity / intracellular accumulation of PpIX” value in series [7] was “intracellular accumulation of PpIX was observed, but the amount of PpIX accumulated was not as large as that in the case of inhibition by Lapatinib”. Further, the “inhibition of ABCG2” value on ABCG2 [8] is listed as “effectively inhibits ABCG2”. Further, the “inhibition … comparison among inhibitors” value on ABCG2 [6] was “ABCG2-inhibitory ability almost equivalent to each other; also recorded: weaker than that of Lapatinib”.
Turning to `CS(=O)(=O)CCNCc1ccc(-c2ccc3ncnc(Nc4ccc(OCc5cccc(F)c5)c(Cl)c4)c3c2)o1` [Lapatinib, n-[3-chloro-4-[(3-fluorophenyl)methoxy]phenyl]-6-[5-[(2-methylsulfonylethylamino)methyl]-2-furyl]quinazolin-4-amine], the “fluorescence intensity / intracellular accumulation of PpIX” value in series [7] was “increased”. For the same compound, in series [7] (2 mM ALA), the “concentration region in which ABCG2 was significantly inhibited” value is recorded as not below 10 nM. Further, in series [4] (10 mM ALA with Lapatinib 1 nM to 300 μM), the “sensitivity of the cells to LED irradiation” value was “increased in a concentration-dependent manner”. On ABCG2 [6], the “inhibition … comparison among inhibitors” value was “inhibits ABCG2 most strongly”.
